Results as given in publication PMC11871066, “Structure-based discovery of hydrocarbon-stapled paxillin peptides that block FAK scaffolding in cancer” (Nature Communications, 2025).
Like-named read-outs stand apart in the source and are kept apart here.

What was measured:
Assay in all cases: Eurofins KINOMEscan profiling, 97 kinases
[1] = target: 97 kinases (kinase named in endpoint) (Homo sapiens, UniProt P00533); conditions: read-out: % Ctrl, EGFR
Procedure: (§1) This experiment was performed by Eurofins KINOMEscan™ Profiling Service. […] The lysates were centrifuged and filtered, the remaining kinases were produced in HEK-293 cells and subsequently tagged with DNA for qPCR detection. […] The liganded beads were blocked with excess biotin and washed with blocking buffer (SeaBlock (Pierce), 1% BSA, 0.05% Tween-20, 1 mM DTT). […] Test compounds were prepared as 100x stocks in 100% DMSO and directly diluted into the assay. All reactions were performed in polypropylene 384-well plates in a final volume of 0.02 ml. […] The kinase concentration in the eluates was measured by qPCR.
(§2) (negative control signal - positive control signal)] x 100. ( b) AccompanyingSelectivity Scores or S -scores
(§3) which are quantitative measures of compound selectivity. They are calculated by dividing the number of
(§4) kinases that compounds bind to by the total number of distinct kinases tested, excluding mutant variants.
(§5) S(35)= ( num ber of non -mutant kinases with %Ctrl <35)/(number of non- mutant kinases tested)], S(10)=
(§6) non- mutant kinases with %Ctrl <1)/(number of non- mutant kinases tested)].

[2] = target: 97 kinases (kinase named in endpoint) (Homo sapiens, UniProt P24941); conditions: read-out: % Ctrl, CDK2
Procedure: as §1, §2, §3, §4, §5, §6

[3] = target: 97 kinases (kinase named in endpoint) (Homo sapiens, UniProt Q9BXA7); conditions: read-out: % Ctrl, TSSK1B
Procedure: as §1, §2, §3, §4, §5, §6

[4] = target: 97 kinases (kinase named in endpoint) (Homo sapiens, UniProt P27448); conditions: read-out: % Ctrl, MARK3
Procedure: as §1, §2, §3, §4, §5, §6

[5] = target: 97 kinases (kinase named in endpoint) (Homo sapiens, UniProt P11309); conditions: read-out: % Ctrl, PIM1
Procedure: as §1, §2, §3, §4, §5, §6

[6] = target: 97 kinases (kinase named in endpoint) (Homo sapiens, UniProt P07949); conditions: read-out: % Ctrl, RET
Procedure: as §1, §2, §3, §4, §5, §6

[7] = target: 97 kinases (kinase named in endpoint) (Homo sapiens, UniProt P43403); conditions: read-out: % Ctrl, ZAP70
Procedure: as §1, §2, §3, §4, §5, §6

[8] = target: 97 kinases (kinase named in endpoint) (Homo sapiens, UniProt P36888); conditions: read-out: % Ctrl, FLT3
Procedure: as §1, §2, §3, §4, §5, §6

[9] = target: 97 kinases (kinase named in endpoint) (Homo sapiens, UniProt P00533, L858R); conditions: read-out: % Ctrl, EGFR(L858R)
Procedure: as §1, §2, §3, §4, §5, §6

[10] = target: 97 kinases (kinase named in endpoint) (Homo sapiens, UniProt Q9UM73); conditions: read-out: % Ctrl, ALK
Procedure: as §1, §2, §3, §4, §5, §6

[11] = target: 97 kinases (kinase named in endpoint) (Homo sapiens, UniProt P50613); conditions: read-out: % Ctrl, CDK7
Procedure: as §1, §2, §3, §4, §5, §6

[12] = target: 97 kinases (kinase named in endpoint) (Homo sapiens, UniProt P31749); conditions: read-out: % Ctrl, AKT1
Procedure: as §1, §2, §3, §4, §5, §6

[13] = target: 97 kinases (kinase named in endpoint) (Homo sapiens, UniProt Q8IYT8); conditions: read-out: % Ctrl, ULK2
Procedure: as §1, §2, §3, §4, §5, §6

[14] = target: 97 kinases (kinase named in endpoint) (Homo sapiens, UniProt Q16539); conditions: read-out: % Ctrl, p38-alpha
Procedure: as §1, §2, §3, §4, §5, §6

[15] = target: 97 kinases (kinase named in endpoint) (Homo sapiens, UniProt P00519)
Procedure: as §1, §2, §3, §4, §5, §6

[16] = target: 97 kinases (kinase named in endpoint) (Homo sapiens, UniProt Q15303); conditions: read-out: % Ctrl, ERBB4
Procedure: as §1, §2, §3, §4, §5, §6

[17] = target: 97 kinases (kinase named in endpoint) (Homo sapiens, UniProt Q06187); conditions: read-out: % Ctrl, BTK
Procedure: as §1, §2, §3, §4, §5, §6

[18] = target: 97 kinases (kinase named in endpoint) (Homo sapiens, UniProt P07333); conditions: read-out: % Ctrl, CSF1R
Procedure: as §1, §2, §3, §4, §5, §6

[19] = target: 97 kinases (kinase named in endpoint) (Homo sapiens, UniProt P15056); conditions: read-out: % Ctrl, BRAF
Procedure: as §1, §2, §3, §4, §5, §6

[20] = target: 97 kinases (kinase named in endpoint) (Homo sapiens, UniProt O60674); conditions: read-out: % Ctrl, JAK2(JH1domain-catalytic)
Procedure: as §1, §2, §3, §4, §5, §6

[21] = target: 97 kinases (kinase named in endpoint) (Homo sapiens, UniProt P42336); conditions: read-out: % Ctrl, PIK3CA
Procedure: as §1, §2, §3, §4, §5, §6

[22] = target: 97 kinases (kinase named in endpoint) (Homo sapiens, UniProt P22607); conditions: read-out: % Ctrl, FGFR3
Procedure: as §1, §2, §3, §4, §5, §6

[23] = target: 97 kinases (kinase named in endpoint) (Homo sapiens, UniProt P51812); conditions: read-out: % Ctrl, RSK2(Kin.Dom.1-N-terminal)
Procedure: as §1, §2, §3, §4, §5, §6

[24] = target: 97 kinases (kinase named in endpoint) (Homo sapiens, UniProt P08581); conditions: read-out: % Ctrl, MET
Procedure: as §1, §2, §3, §4, §5, §6

[25] = target: 97 kinases (kinase named in endpoint) (Homo sapiens, UniProt Q9H4B4); conditions: read-out: % Ctrl, PLK3
Procedure: as §1, §2, §3, §4, §5, §6

[26] = target: 97 kinases (kinase named in endpoint) (Homo sapiens, UniProt O75116); conditions: read-out: % Ctrl, ROCK2
Procedure: as §1, §2, §3, §4, §5, §6

[27] = target: 97 kinases (kinase named in endpoint) (Homo sapiens, UniProt Q9UPE1); conditions: read-out: % Ctrl, SRPK3
Procedure: as §1, §2, §3, §4, §5, §6

[28] = target: 97 kinases (kinase named in endpoint) (Homo sapiens, UniProt P45984); conditions: read-out: % Ctrl, JNK2
Procedure: as §1, §2, §3, §4, §5, §6

[29] = read-out: % Ctrl, ABL1-nonphosphorylated
[30] = read-out: % Ctrl, ABL1-phosphorylated

97 kinases (kinase named in endpoint) (Homo sapiens, UniProt P00519), sequence (P00519 whole entry): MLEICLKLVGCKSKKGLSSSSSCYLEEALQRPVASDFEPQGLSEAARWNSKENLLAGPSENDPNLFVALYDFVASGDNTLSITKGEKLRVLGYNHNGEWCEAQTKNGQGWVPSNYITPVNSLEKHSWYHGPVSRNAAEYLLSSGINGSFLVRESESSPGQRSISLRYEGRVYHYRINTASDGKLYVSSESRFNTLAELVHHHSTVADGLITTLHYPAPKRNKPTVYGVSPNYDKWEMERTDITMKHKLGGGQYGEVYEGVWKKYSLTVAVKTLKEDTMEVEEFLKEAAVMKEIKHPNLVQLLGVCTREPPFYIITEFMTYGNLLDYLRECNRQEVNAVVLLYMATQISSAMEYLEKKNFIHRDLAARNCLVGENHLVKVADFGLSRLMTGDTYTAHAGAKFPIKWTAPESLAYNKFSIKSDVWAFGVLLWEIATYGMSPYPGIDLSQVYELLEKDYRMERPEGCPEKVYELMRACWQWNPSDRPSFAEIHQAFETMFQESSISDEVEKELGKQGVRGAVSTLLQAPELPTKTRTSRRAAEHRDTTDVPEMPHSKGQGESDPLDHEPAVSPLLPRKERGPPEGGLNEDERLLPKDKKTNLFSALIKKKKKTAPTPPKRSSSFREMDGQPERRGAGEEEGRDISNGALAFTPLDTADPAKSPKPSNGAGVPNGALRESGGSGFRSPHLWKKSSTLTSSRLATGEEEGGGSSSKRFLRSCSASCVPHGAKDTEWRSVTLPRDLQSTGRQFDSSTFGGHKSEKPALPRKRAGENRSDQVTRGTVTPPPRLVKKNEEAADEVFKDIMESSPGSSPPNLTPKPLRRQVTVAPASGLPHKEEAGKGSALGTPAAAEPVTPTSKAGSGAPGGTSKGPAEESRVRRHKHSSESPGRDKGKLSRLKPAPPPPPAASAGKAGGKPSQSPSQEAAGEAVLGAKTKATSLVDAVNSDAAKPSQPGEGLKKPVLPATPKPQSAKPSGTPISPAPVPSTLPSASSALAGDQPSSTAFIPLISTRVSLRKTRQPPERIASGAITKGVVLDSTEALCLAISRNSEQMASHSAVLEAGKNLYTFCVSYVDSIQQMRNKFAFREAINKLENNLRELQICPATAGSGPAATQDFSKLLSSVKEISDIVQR
97 kinases (kinase named in endpoint) (Homo sapiens, UniProt P11309), sequence (P11309 whole entry): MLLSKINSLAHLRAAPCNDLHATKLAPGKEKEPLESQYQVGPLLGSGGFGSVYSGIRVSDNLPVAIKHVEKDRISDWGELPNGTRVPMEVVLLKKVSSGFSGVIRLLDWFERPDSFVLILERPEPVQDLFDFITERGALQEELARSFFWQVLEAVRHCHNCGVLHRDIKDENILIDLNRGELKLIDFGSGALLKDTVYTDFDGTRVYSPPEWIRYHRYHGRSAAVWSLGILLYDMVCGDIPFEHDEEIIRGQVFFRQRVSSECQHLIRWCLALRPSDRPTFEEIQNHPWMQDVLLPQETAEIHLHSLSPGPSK
97 kinases (kinase named in endpoint) (Homo sapiens, UniProt Q9BXA7), sequence (Q9BXA7 whole entry): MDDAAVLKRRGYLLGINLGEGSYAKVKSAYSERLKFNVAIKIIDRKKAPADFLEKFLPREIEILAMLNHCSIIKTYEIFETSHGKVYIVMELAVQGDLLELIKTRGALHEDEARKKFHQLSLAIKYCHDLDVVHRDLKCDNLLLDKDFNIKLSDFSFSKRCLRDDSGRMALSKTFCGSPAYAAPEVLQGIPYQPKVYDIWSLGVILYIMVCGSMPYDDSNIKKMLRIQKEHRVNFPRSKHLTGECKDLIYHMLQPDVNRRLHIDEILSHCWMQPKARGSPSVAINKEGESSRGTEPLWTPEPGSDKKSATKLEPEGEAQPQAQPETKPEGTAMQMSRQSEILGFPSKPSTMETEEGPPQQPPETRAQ
97 kinases (kinase named in endpoint) (Homo sapiens, UniProt O75116), sequence (O75116 whole entry): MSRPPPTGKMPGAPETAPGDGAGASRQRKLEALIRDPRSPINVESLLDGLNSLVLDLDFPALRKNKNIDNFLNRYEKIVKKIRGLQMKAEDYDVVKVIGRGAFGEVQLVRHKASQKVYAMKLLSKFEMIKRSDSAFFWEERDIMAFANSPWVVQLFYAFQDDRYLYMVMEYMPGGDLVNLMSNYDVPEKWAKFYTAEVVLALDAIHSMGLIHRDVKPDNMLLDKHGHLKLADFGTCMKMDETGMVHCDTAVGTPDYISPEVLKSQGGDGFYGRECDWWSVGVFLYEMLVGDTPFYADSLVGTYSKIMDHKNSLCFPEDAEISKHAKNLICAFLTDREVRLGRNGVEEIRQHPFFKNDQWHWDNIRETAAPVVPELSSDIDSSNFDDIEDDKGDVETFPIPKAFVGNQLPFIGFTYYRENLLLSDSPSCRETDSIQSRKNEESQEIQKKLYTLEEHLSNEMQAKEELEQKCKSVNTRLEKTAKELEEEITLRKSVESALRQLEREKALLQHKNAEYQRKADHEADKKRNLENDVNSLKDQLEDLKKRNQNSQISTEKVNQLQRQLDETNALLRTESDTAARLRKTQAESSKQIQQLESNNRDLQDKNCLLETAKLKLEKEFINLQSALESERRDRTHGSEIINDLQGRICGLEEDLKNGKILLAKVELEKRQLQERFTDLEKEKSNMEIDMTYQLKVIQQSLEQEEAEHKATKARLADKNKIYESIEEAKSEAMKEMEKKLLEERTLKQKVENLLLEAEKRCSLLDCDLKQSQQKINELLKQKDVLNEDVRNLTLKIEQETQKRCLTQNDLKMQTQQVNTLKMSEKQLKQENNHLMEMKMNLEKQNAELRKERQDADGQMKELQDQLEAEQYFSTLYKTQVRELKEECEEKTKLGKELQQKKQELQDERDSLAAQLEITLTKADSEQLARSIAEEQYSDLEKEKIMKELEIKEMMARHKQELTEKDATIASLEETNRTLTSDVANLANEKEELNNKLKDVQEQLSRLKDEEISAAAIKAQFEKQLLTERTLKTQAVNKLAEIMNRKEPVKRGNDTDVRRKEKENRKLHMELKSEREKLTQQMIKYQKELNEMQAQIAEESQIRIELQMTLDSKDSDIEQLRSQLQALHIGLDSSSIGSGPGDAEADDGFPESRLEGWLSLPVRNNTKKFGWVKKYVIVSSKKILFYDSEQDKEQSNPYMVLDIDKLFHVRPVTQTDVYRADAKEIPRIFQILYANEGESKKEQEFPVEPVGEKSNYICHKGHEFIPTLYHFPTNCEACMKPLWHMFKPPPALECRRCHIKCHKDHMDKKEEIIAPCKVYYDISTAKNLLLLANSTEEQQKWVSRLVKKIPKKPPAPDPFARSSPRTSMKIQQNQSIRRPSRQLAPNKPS
97 kinases (kinase named in endpoint) (Homo sapiens, UniProt P08581), sequence (P08581 25-1390): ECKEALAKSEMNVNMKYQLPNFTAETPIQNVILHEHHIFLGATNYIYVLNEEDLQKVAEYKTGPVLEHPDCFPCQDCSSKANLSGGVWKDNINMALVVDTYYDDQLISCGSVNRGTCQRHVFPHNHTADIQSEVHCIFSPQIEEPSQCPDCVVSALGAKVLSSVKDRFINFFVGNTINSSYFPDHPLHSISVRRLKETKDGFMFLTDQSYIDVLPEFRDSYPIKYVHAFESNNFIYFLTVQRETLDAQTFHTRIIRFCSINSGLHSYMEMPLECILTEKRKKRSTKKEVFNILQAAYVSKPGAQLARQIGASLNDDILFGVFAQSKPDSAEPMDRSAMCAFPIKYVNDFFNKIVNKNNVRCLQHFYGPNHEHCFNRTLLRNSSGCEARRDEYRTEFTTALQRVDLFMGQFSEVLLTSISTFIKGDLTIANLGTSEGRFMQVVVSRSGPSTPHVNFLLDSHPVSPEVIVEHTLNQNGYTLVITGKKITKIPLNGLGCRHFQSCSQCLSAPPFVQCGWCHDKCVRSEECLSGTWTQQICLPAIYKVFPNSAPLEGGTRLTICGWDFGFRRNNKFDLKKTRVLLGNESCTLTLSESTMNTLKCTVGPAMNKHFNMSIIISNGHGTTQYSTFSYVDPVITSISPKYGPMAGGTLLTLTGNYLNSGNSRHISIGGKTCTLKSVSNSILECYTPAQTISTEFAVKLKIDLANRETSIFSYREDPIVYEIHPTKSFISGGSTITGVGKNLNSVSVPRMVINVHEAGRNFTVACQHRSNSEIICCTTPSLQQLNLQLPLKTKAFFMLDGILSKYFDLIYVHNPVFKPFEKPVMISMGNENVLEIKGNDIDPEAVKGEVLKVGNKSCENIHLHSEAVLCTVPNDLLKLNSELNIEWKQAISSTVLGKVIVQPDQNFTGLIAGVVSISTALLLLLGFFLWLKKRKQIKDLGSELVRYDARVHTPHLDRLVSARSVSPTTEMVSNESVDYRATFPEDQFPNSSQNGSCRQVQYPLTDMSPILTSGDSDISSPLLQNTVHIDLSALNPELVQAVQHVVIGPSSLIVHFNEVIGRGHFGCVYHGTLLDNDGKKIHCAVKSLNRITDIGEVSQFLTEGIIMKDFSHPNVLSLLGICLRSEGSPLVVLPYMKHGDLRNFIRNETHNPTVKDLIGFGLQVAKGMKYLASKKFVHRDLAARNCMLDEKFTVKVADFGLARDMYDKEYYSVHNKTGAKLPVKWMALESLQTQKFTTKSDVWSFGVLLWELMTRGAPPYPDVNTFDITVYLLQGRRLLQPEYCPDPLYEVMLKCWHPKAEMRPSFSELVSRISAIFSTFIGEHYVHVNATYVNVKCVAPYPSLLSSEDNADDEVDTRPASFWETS
97 kinases (kinase named in endpoint) (Homo sapiens, UniProt P31749), sequence (P31749 whole entry): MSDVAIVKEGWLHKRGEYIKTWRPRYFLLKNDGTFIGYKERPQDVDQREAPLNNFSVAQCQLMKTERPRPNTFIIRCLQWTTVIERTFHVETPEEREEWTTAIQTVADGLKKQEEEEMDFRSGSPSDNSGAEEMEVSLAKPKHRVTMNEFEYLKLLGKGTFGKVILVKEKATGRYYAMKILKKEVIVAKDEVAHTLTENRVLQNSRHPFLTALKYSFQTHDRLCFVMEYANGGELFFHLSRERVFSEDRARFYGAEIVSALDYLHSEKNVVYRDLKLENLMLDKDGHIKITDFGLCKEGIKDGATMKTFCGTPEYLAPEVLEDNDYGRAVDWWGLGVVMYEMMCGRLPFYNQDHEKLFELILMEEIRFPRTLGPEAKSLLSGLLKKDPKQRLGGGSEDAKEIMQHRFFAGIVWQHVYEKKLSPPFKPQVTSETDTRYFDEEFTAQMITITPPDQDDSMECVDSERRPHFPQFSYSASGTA

| SMILES | remaining binding at 1 µM [1] [%] | remaining binding at 1 µM [2] [%] | remaining binding at 1 µM [3] [%] | remaining binding at 1 µM [4] [%] | remaining binding at 1 µM [5] [%] | remaining binding at 1 µM [6] [%] | remaining binding at 1 µM [7] [%] | remaining binding at 1 µM [8] [%] | remaining binding at 1 µM [9] [%] | remaining binding at 1 µM [10] [%] | remaining binding at 1 µM [11] [%] | remaining binding at 1 µM [12] [%] | remaining binding at 1 µM [13] [%] | remaining binding at 1 µM [14] [%] | remaining binding at 1 µM [15, 29] [%] | remaining binding at 1 µM [15, 30] [%] | remaining binding at 1 µM [16] [%] | remaining binding at 1 µM [17] [%] | remaining binding at 1 µM [18] [%] | remaining binding at 1 µM [19] [%] | further results |
| --- | --- | --- | --- | --- | --- | --- | --- | --- | --- | --- | --- | --- | --- | --- | --- | --- | --- | --- | --- | --- | --- |
| CCCCCCCCCCCCCC(=O)N[C@@H](CC(N)=O)C(=O)N[C@@H](CC(C)C)C(=O)N[C@]1(C)CCCCCCC=CCCC[C@@](C)(C(=O)N[C@@H](CCC(=O)O)C(=O)N[C@@H](CC(C)C)C(=O)N[C@@H](CC(N)=O)C(N)=O)NC(=O)[C@H](CC(C)C)NC(=O)[C@H](CC(C)C)NC(=O)[C@H](CCCNC(=N)N)NC(=O)[C@H](CC(=O)O)NC(=O)[C@H](CC(C)C)NC(=O)[C@H](CCC(=O)O)NC1=O [compound 2012] | 93 | 88 | 98 | 91 | 100 | 99 | 96 | 93 | 99 | 100 | 69 | 100 | 100 | 98 | 56 | 80 | 83 | 100 | 95 | 100 | remaining binding at 1 µM [20]: 87%; remaining binding at 1 µM [21]: 100%; remaining binding at 1 µM [22]: 95%; remaining binding at 1 µM [23]: 100%; remaining binding at 1 µM [24]: 100%; remaining binding at 1 µM [25]: 94%; remaining binding at 1 µM [26]: 100%; remaining binding at 1 µM [27]: 79%; remaining binding at 1 µM [28]: 100% |
| CNC(=O)c1ccc(Nc2ncc(C(F)(F)F)c(NCc3nccnc3N(C)S(C)(=O)=O)n2)cc1 [defactinib] | 92 | 63 | 82 | 50 | 73 | 12 | 95 | 1.1 | 81 | 32 | 22 | 100 | 28 | 100 | 37 | 51 | 100 | 100 | 72 | 100 | remaining binding at 1 µM [20]: 0.1%; remaining binding at 1 µM [21]: 100%; remaining binding at 1 µM [22]: 45%; remaining binding at 1 µM [23]: 9.9%; remaining binding at 1 µM [24]: 15%; remaining binding at 1 µM [25]: 28%; remaining binding at 1 µM [26]: 43%; remaining binding at 1 µM [27]: 47%; remaining binding at 1 µM [28]: 52% |
